Assay: MTT cell viability assay, compounds at 5, 1 and 0.2 μM, 48 hours
Assay type: cell-based
Settings: human, A549 tumor cells
Method in brief: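 A549 cells were seeded at 2500/well in DMEM + 10% FBS, grown overnight, then exposed to compound for 48 h. Viability was read by MTT (5 mg/ml, 4 h), with formazan dissolved in DMSO and absorbance measured at 560/570 nm to give survival rate.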

SMILES	viability at 48 h, 0.2 µM [%]	viability at 48 h, 1 µM [%]	viability at 48 h, 5 µM [%]
CSc1nc(N)cc(Oc2ccc(-c3nnc(Nc4cccc(C(F)(F)F)c4)[nH]3)c(F)c2)n1 [Compound 107]	> 70	> 70	50 to 70
FC(F)(F)c1cccc(Nc2nnc(-c3ccc(Oc4ccncc4C(F)(F)F)cc3)[nH]2)c1 [Compound 8]	> 70	> 70	50 to 70
CSc1nc(N)cc(Oc2ccc(-c3nnc(Nc4ccc5c(c4)CCC5)[nH]3)cc2)n1 [Compound 124]	> 70	> 70	< 50
CSc1nc(N)cc(Oc2ccc(-c3nnc(Nc4cc(C)ccc4C)[nH]3)cc2)n1 [Compound 67]	50 to 70	< 50	< 50
CSc1nc(N)cc(Oc2ccc(-c3nnc(Nc4cccc(CC#N)c4)[nH]3)cc2)n1 [Compound 130]	> 70	> 70	< 50
CSc1nc(N)cc(Oc2ccc(-c3nnc(Nc4cccc(Cl)c4)[nH]3)cc2)n1 [Compound 133]	> 70	< 50	< 50
COc1ccc2c(Oc3ccc(-c4nnc(Nc5cccc(C(F)(F)F)c5)[nH]4)cc3)ccnc2c1 [Compound 11]	> 70	> 70	50 to 70
O=c1cc(COc2ccc(-c3nnc(Nc4cccc(C(F)(F)F)c4)[nH]3)cc2)c2ccccc2[nH]1 [Compound 161]	> 70	50 to 70	< 50
CCc1nc(N)cc(Oc2cccc(-c3nnc(Nc4cccc(C(F)(F)F)c4)[nH]3)c2)n1 [Compound 99]	> 70	> 70	50 to 70
COc1cc2ncnc(Oc3ccc(-c4nnc(Nc5cccc(C(F)(F)F)c5)[nH]4)cc3)c2cc1OC [Compound 160]	> 70	> 70	50 to 70
CSc1nc(N)cc(Oc2ccc(-c3nnc(Nc4cc(C)cc(C)c4)[nH]3)cc2)n1 [Compound 123]	< 50	< 50	< 50
O=c1cc(COc2cccc(-c3nnc(Nc4cccc(C(F)(F)F)c4)[nH]3)c2)c2ccccc2[nH]1 [Compound 171]	> 70	> 70	> 70
COc1ccc2c(Oc3cccc(-c4nnc(Nc5cccc(C(F)(F)F)c5)o4)c3)ccnc2c1 [Compound 41]	> 70	> 70	> 70
FC(F)(F)c1cccc(Nc2nnc(-c3cccc(Oc4cc(C(F)(F)F)nc5ccccc45)c3)[nH]2)c1 [Compound 169]	> 70	> 70	> 70
FC(F)(F)c1cccc(Nc2nnc(-c3cccc(Oc4ncnc5[nH]ccc45)c3)o2)c1 [Compound 60]	> 70	> 70	> 70
COc1nc(Oc2ccc(-c3nnc(Nc4cccc(C(F)(F)F)c4)[nH]3)cc2)c2cc[nH]c2n1 [Compound 75]	> 70	> 70	> 70
Nc1cc(Oc2cccc(-c3nnc(Nc4cccc(C(F)(F)F)c4)[nH]3)c2)c2ccccc2n1 [Compound 86]	> 70	> 70	> 70
COc1cc(Oc2cccc(-c3nnc(Nc4cccc(C(F)(F)F)c4)[nH]3)c2)ccn1 [Compound 90]	> 70	> 70	> 70

SMILES	viability at 48 h, 0.2 µM [%]	viability at 48 h, 1 µM [%]	viability at 48 h, 5 µM [%]
FC(F)(F)c1cccc(Nc2nnc(-c3ccc(Oc4cc(C(F)(F)F)nc5ccccc45)cc3)[nH]2)c1 [Compound 159]	> 70	> 70	50 to 70
COc1ccc2c(Oc3ccc(-c4nnc(Nc5cccc(C(F)(F)F)c5)[nH]4)cc3)ncnc2c1 [Compound 70]	> 70	> 70	< 50
NS(=O)(=O)c1cnccc1Oc1cccc(-c2nnc(Nc3cccc(C(F)(F)F)c3)[nH]2)c1 [Compound 19]	> 70	> 70	> 70
FC(F)(F)c1cccc(Nc2nnc(-c3ccc(Oc4ccnc5cc(C(F)(F)F)ccc45)cc3)[nH]2)c1 [Compound 148]	> 70	> 70	> 70
CCc1nc(N)cc(Oc2ccc(-c3nnc(Nc4cccc(C(F)(F)F)c4)[nH]3)cc2)n1 [Compound 81]	> 70	50 to 70	< 50
Nc1nccc(Oc2cccc(-c3nnc(Nc4cccc(C(F)(F)F)c4)[nH]3)c2)n1 [Compound 15]	> 70	> 70	> 70
Oc1ccc(Nc2nnc(-c3cccc(C(F)(F)F)c3)[nH]2)cc1 [Compound 181]	> 70	> 70	> 70
CSc1nc(N)cc(Oc2ccc(-c3nnc(Nc4cc(C(C)(C)C)n[nH]4)[nH]3)cc2)n1 [Compound 132]	> 70	> 70	< 50
FC(F)(F)c1cccc(Nc2nnc(-c3cccc(Oc4ccnc5ccccc45)c3)o2)c1 [Compound 42]	> 70	> 70	> 70
CSc1nc(N)cc(Oc2ccc(-c3nnc(Nc4cccc(C)c4)[nH]3)cc2)n1 [Compound 65]	> 70	> 70	50 to 70
FC(F)(F)c1cccc(Nc2nnc(-c3cccc(Oc4ccncc4)c3)[nH]2)c1 [Compound 17]	> 70	50 to 70	50 to 70
CSc1nc(N)cc(Oc2ccc(-c3nnc(NC4CCCCC4)[nH]3)cc2)n1 [Compound 155]	> 70	> 70	< 50
CSc1nc(N)cc(Oc2ccc(-c3nnc(Nc4cc(C(C)(C)C)nn4-c4cccc(C)c4)[nH]3)cc2)n1 [Compound 139]	> 70	> 70	> 70
CSc1nc(Oc2ccc(-c3nnc(Nc4cccc(C(F)(F)F)c4)[nH]3)cc2)c2cc[nH]c2n1 [Compound 9]	> 70	> 70	> 70
FC(F)(F)c1cccc(Nc2nnc(-c3ccc(Oc4ccnc5[nH]ccc45)cc3)[nH]2)c1 [Compound 68]	> 70	50 to 70	< 50
FC(F)(F)c1cccc(Nc2nnc(-c3cccc(Oc4cncnc4)c3)[nH]2)c1 [Compound 101]	> 70	> 70	> 70
Nc1cc(Oc2ccc(-c3nnc(Nc4cccc(C(F)(F)F)c4)o3)cc2)nc(N)n1 [Compound 24]	> 70	> 70	> 70

Reference: US9212151B2, “Heterocyclic compounds useful for kinase inhibition” (Amitech Therapeutic Solutions, Inc., priority 2010, dated 2015)
